The first test has as its target T1, human AR (Homo sapiens, UniProt P10275).
T1 construct: expressed in transfected cells; host or cells: COS-1 cells
T1 sequence (P10275 1-920): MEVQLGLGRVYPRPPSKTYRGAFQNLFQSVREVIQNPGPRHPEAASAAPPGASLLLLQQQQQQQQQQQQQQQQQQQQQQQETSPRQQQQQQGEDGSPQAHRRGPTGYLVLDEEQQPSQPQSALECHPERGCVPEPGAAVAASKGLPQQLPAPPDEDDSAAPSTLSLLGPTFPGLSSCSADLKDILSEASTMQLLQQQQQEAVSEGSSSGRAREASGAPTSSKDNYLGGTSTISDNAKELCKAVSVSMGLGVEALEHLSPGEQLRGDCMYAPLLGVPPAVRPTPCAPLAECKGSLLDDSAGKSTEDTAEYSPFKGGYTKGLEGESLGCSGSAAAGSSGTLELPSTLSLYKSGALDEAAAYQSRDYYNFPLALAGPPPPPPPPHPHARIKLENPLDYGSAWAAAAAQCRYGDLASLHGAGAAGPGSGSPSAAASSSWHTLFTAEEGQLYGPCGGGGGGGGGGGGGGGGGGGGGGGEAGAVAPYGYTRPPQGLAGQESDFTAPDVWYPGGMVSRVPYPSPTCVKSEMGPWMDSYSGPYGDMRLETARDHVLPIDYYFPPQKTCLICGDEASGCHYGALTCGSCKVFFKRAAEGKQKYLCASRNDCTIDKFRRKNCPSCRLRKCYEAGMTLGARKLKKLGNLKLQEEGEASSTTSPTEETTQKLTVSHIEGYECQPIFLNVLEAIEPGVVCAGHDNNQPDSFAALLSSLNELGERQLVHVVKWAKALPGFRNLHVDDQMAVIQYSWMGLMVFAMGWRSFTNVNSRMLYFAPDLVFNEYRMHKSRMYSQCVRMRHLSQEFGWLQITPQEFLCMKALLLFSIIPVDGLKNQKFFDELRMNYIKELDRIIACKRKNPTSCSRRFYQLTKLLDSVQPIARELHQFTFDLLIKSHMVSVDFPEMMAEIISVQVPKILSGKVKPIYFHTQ
In words: IR Binding Assay: whole cell competitive binding of test compounds against 3H-DHT in COS-1 cells transfected with pRShAR.
Details: not given
In a few lines: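 COS-1 cells transfected with pRShAR plus β-Gal reporter, serum-starved 24 h, then exposed to 1 nM ³H-DHT with compounds at 10^−10 to 10^−6 M for 3 h at 37 °C. Bound ³H-DHT counted in lysates, normalized to β-Gal. IC50 from log-logit plot; Ki via Cheng-Prusoff using Kd from Scatchard saturation analysis.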
The term Ki denotes a dissociation constant, usually derived from enzyme kinetics or from competition with a known ligand. The compound `Cc1c(C)n(CC(O)CCl)c2ccc3[nH]c(=O)cc(C(F)(F)F)c3c12` (stereo not shown) [Compound 294, 3-(3-chloro-2-hydroxypropyl)-1,2-dimethyl-9-trifluoromethyl-3,6-dihydro-pyrrolo[3,2-f]-quinolin-7-one] registered a Ki below 5 nM.
`CC1c2c(ccc3[nH]c(=O)cc(Cl)c23)N(CC(F)(F)F)C1c1cccs1` (racemic) [Compound 161, (±)-9-Chloro-1-methyl-2-(thien-2-yl)-3-(2,2,2-trifluoroethyl)-1,2,3,6-tetrahydro-pyrrolo[3,2-f]quinolin-7-one] showed a Ki below 5 nM.
As for `Cc1[nH]c2ccc3[nH]c(=O)cc(Cl)c3c2c1CC(=O)O` [Compound 122, (9-Chloro-2-methyl-7-oxo-6,7-dihydro-3H-pyrrolo[3,2-f]quinolin-1-yl)-acetic acid], the Ki is below 5 nM.
The same measure, in the same setting: as for `CCc1c(C)c2c3c(Cl)cc(=O)[nH]c3ccc2n1CC(O)C(F)(F)F` (racemic) [Compound 232, (±)-9-Chloro-2-ethyl-1-methyl-3-(3,3,3-trifluoro-2-hydroxy-propyl)-3,6-dihydro-pyrrolo[3,2-f]quinolin-7-one], the figure is below 5 nM.
`CCC1c2c(ccc3[nH]c(=O)cc(Cl)c23)N(CC(F)(F)F)C1C` (racemic) [Compound 129, (±)-9-Chloro-1-ethyl-2-methyl-3-(2,2,2-trifluoro-ethyl)-1,2,3,6-tetrahydropyrrolo[3,2-f]-quinolin-7-one] returned a Ki above 10 nM.
On to `CCc1c(C)c2c3c(C(F)(F)F)cc(=O)[nH]c3ccc2n1CCCC(F)(F)F` [Compound 228, 2-Ethyl-1-methyl-3-(4,4,4-trifluorobutyl)-9-trifluoromethyl-3,6-dihydro-pyrrolo[3,2-f]-quinolin-7-one], for which the Ki was below 5 nM.
With `CC1c2c(ccc3[nH]c(=O)cc(Cl)c23)N(CC(F)(F)F)C1c1ccc(Cl)c(Cl)c1` (racemic) [Compound 157, (±)-9-Chloro-2-(3,4-dichlorophenyl)-1-methyl-3-(2,2,2-trifluoroethyl)-1,2,3,6-tetrahydropyrrolo[3,2-f]quinolin-7-one], the Ki is below 5 nM.
Still for that read-out and setting: as for `CC1c2c(ccc3[nH]c(=O)cc(Cl)c23)N(CC(F)(F)F)C1c1cccc(Br)c1` (racemic) [Compound 153, (±)-2-(3-Bromophenyl)-9-chloro-1-methyl-3-(2,2,2-trifluoroethyl)-1,2,3,6-tetrahydro-pyrrolo[3,2-f]quinolin-7-one], the figure is above 10 nM; as for `CCc1c(C)c2c3c(C(F)(F)F)cc(=O)[nH]c3ccc2n1CCC(F)(F)F` [Compound 226, 2-Ethyl-1-methyl-9-trifluoromethyl-3-(3,3,3-trifluoropropyl)-3,6-dihydro-pyrrolo[3,2-f]-quinolin-7-one], below 5 nM.
As for `CC1c2c(ccc3[nH]c(=O)cc(Cl)c23)N(CCO)C1C` (racemic) [Compound 139, (±)-9-Chloro-1,2-dimethyl-3-(2-hydroxyethyl)-1,2,3,6-tetrahydro-pyrrolo[3,2-f]-quinolin-7-one], the Ki is above 10 nM.
On the same count and under the same terms, the result for `Cc1cn(CC(F)(F)F)c2ccc3[nH]c(=O)cc(Cl)c3c12` [Compound 211, 9-Chloro-1-methyl-3-(2,2,2-trifluoroethyl)-3,6-dihydro-pyrrolo[3,2-f]quinolin-7-one] reads 5 to 10 nM.
The same measure, in the same setting: the result for `Cc1c(-c2ccncc2)n(C[C@@H](O)C(F)(F)F)c2ccc3[nH]c(=O)cc(Cl)c3c12` [Compound 283, (R)-9-Chloro-1-methyl-2-(4-pyridyl)-3-(3,3,3-trifluoro-2-hydroxy-propyl)-3,6-dihydro-pyrrolo[3,2-f]quinolin-7-one] reads 5 to 10 nM; that for `CC1c2c(ccc3[nH]c(=O)cc(Cl)c23)N(CC(F)(F)F)C1c1ccccc1` (racemic) [Compound 130, (±)-9-Chloro-1-methyl-2-phenyl-3-(2,2,2-trifluoro-ethyl)-1,2,3,6-tetrahydro-pyrrolo[3,2-f]-quinolin-7-one], 5 to 10 nM.
`CCC1C(C)c2c(ccc3[nH]c(=O)cc(Cl)c23)N1CC(F)(F)F` (racemic) [Compound 128, (±)-9-Chloro-2-ethyl-1-methyl-3-(2,2,2-trifluoro-ethyl)-1,2,3,6-tetrahydro-pyrrolo[3,2-f]quinolin-7-one]: the inhibitory constant (Ki) was above 10 nM.
The compound `Cc1c(CCCCl)c2c3c(Cl)cc(=O)[nH]c3ccc2n1CC(F)(F)C(F)(F)F` [Compound 269, 9-Chloro-1-(3-chloropropyl)-2-methyl-3-(2,2,3,3,3-pentafluoropropyl)-3,6-dihydro-pyrrolo[3,2-f]quinolin-7-one] came in with an inhibition constant Ki above 10 nM.
On the same count and under the same terms, as for `Cc1c(-c2ccccc2)n(C[C@H](O)C(F)(F)F)c2ccc3[nH]c(=O)cc(Cl)c3c12` [Compound 271, (S)-9-Chloro-1-methyl-2-phenyl-3-(3,3,3-trifluoro-2-hydroxy-propyl)-3,6-dihydro-pyrrolo[3,2-f]quinolin-7-one], the figure is below 5 nM.
Compound `Cc1c(C(F)(F)F)n(CC(F)(F)F)c2ccc3[nH]c(=O)cc(Cl)c3c12` [Compound 229, 9-Chloro-1-methyl-3-(2,2,2-trifluoro-ethyl)-2-trifluoromethyl-3,6-dihydro-pyrrolo[3,2-f]-quinolin-7-one] returned a Ki below 5 nM.
In turn, `Cc1c(-c2ccc(F)cc2F)n(CC(F)(F)F)c2ccc3[nH]c(=O)cc(Cl)c3c12` [Compound 200, 9-Chloro-2-(2,4-difluorophenyl)-1-methyl-3-(2,2,2-trifluoroethyl)-3,6-dihydro-pyrrolo[3,2-f]-quinolin-7-one] came in with a Ki below 5 nM.
For the compound `Cc1c(C)n(C[C@@H](O)C(F)(F)F)c2ccc3[nH]c(=O)cc(C(F)(F)F)c3c12` [Compound 244, (+)-1,2-Dimethyl-3-(3,3,3-trifluoro-2-hydroxy-propyl)-9-trifluoromethyl-3,6-dihydro-pyrrolo[3,2-f]-quinolin-7-one], the Ki is above 10 nM.
As for `CC1c2c(ccc3[nH]c(=O)cc(C(F)(F)F)c23)N(CCC(F)(F)F)C1C` (racemic) [Compound 174, (±)-1,2-Dimethyl-9-trifluoromethyl-3-(3,3,3-trifluoropropyl)-1,2,3,6-tetrahydro-pyrrolo[3,2-f]quinolin-7-one], the inhibition constant Ki was below 5 nM.

Still in this test, the particulars now being: competition with 1 nM 3H-DHT, transfected COS-1 cells, 3 h at 37° C., Cheng-Prusoff from IC50; read-out: Ki.
As for `CC1c2c(ccc3[nH]c(=O)cc(Cl)c23)NC1c1ccccc1` (racemic) [Compound 172, (±)-9-Chloro-1-methyl-2-phenyl-1,2,3,6-tetrahydro-pyrrolo[3,2-f]quinolin-7-one], the Ki was above 10 nM.
In the case of `CC(=O)c1[nH]c2ccc3[nH]c(=O)cc(Cl)c3c2c1C` [Compound 121, 2-Acetyl-9-chloro-1-methyl-3,6-dihydro-pyrrolo[3,2-f]quinolin-7-one], the Ki is above 10 nM.

(Values after US8580811B2 (Ligand Pharmaceuticals Incorporated, priority 2005, dated 2013).)
